Assay results taken from a melting point compilation (Tetko et al.; mined from patent text by program, amines drawn as free bases though some values may be those of a salt).

melting point | SMILES
146 to 147 °C | COCN(c1cccc2cc(C(=O)/N=C/N(C)C)n(COC)c12)S(=O)(=O)c1cccs1
143 to 145 °C | Cc1cc(Cl)ccc1N1CCCN(C)C1=S
107 to 110 °C | COc1ccc(-c2cc(-c3ccccc3)c(-c3ccccc3)s2)c(OC)c1
38 to 40 °C | N#Cc1cccc(OCc2ccccc2)c1
194 to 195 °C | O=C(Nc1ccc(Cl)c(-c2ccnc3c(C(=O)c4cccs4)cnn23)c1)c1ccccc1
286 to 287 °C | CC(N)C1CCC(C(=O)Nc2ccncc2)CC1 (configuration not stated)
135 to 136 °C | CCN(CC)c1ccc(NC(=O)c2cnn(-c3ccc(F)cc3)c2C)cc1C#N
87.7 °C | C#CCOc1cc(Oc2cc(Cl)ccc2Cl)ncn1
250 to 252 °C | Cn1ncnc1COc1nn2c(-c3cc(CF)on3)nnc2c2ccccc12
163 to 164 °C | CS(=O)(=O)c1ccc(C2=C(c3ccc(C#N)cc3)CCC2)cc1
236 to 237 °C | CCc1cn(C2CC(O)C(CNC(=O)Cc3ccccc3Br)O2)c(=O)nc1N (configuration not stated)
184 to 186 °C | NC(=O)c1ccc(F)c2c1CC([N+](=O)[O-])CO2 (configuration not stated)
165 to 166 °C | CCc1c(-c2ccccc2)n(-c2ccccc2Cl)c(-c2ccccc2)cc1=O
62 to 64 °C | Cc1nc(CN(C(=O)CCl)c2c(C)cccc2C)cs1
48 to 50 °C | CC(C)(C)C(=O)N1CCSC1=S
63 to 64 °C | OCCCc1ccc(OCc2ccccc2)cc1
159 to 161 °C | COc1cn(-c2ccc(-n3cccn3)cc2F)nc(C(C)=O)c1=O
54 to 74 °C | CC(C)(C)OC(=O)N[C@@H](Cc1ccccc1)C(=O)N1CCN(C(c2ccc(F)cc2)c2ccc(F)cc2)CC1
171 to 174 °C | Cc1nc(CC2OC(CO)C(O)C2O)n2nc(Cl)ccc12 (configuration not stated)
71 to 72 °C | CCOC(=O)N1CCC(c2nc(-c3ccc(-c4ccccc4)cc3)c[nH]2)CC1
274 to 275 °C | Oc1ccnc2ccc(Cl)cc12
129 to 131 °C | O=C(c1ccc(Cc2c(Cl)cc([N+](=O)[O-])cc2Cl)cc1)c1cnc(Cl)c(Cl)c1
197 to 198 °C | NS(=O)(=O)c1ccc2c(c1)C(=O)CCC2

melting point | SMILES
59 to 61 °C | CCNc1c(C(=O)OCC)c(C)nc(N2CCN(C)CC2)c1[N+](=O)[O-]
188 to 190 °C | CC(=O)Nc1nc(CCc2ccc(CC(=O)NC(=N)N)s2)cs1
169 to 171 °C | Cc1[nH]c2ccc(F)cc2c1C(=O)Nc1ccc(N2CCC(O)CC2)c(C#N)c1
207 to 209 °C | O=[N+]([O-])c1ccc(-c2nnc3ccc(N=CCN4CCCCC4)nn23)o1
105 to 107 °C | O=CN1CCN=C1CC(c1ccccc1)c1ccccc1
170 to 171 °C | CCCc1c(OCCCOc2ccc(Cl)c3ccccc23)ccc2c1OC(CCC(=O)O)(CCC(=O)O)CC2=O
133 to 135 °C | Nc1ccccc1Oc1ncc(C(F)(F)F)cc1Cl
173 to 175 °C | CCn1c(=O)n(O)c(=O)c2cc(F)c(N3CCCCC3)cc21
156 to 157 °C | CCCCN(CC)CC1CCCCN1CCNC(=O)N1c2ccccc2C(=O)Nc2cccnc21 (configuration not stated)
200 to 203 °C | CC(C)c1ccc(CCNc2ncnc3ncccc23)cc1
149 to 150 °C | CC(CSC(=S)c1cccs1)C(=O)N1CCCC1C(=O)O (configuration not stated)
173 to 175 °C | O=C(O)C(CCc1ccccc1)NC1CCc2ccccc2NC1=O (configuration not stated)
149 to 150 °C | CON=C1c2ccccc2-c2c(N3CCNCC3)nc3ccccc3c21
225 to 230 °C | Cc1ccc(C2(CC(=O)O)CNC(=O)C2)c(C)c1 (configuration not stated)
115 to 118 °C | CSC(=NS(=O)(=O)c1cccnc1)SC
230 °C | O=C(O)COC1(Cl)CC(c2ccccc2)=Nc2ccccc21 (configuration not stated)
131 to 132 °C | COC(=O)C(O)=Cc1ccc(OCc2ccc(F)cc2)cn1
99 °C | OC(COc1ccc(Cl)cc1)(Cn1cncn1)Cn1cncn1
177 to 178 °C | CN1CC(C#CC2CC2)(C(F)(F)F)c2cc(Cl)ccc2NC1=O (configuration not stated)
196 to 198 °C | CC(=O)NCCC1Nc2ccccc2N2CCc3cccc1c32 (configuration not stated)
149 to 152 °C | CS(=O)(=O)c1ccc2cc[nH]c2c1
237 to 239 °C | COc1ccc(OC)c2c1C[C@@H](O)[C@H](N1CCN(c3ccccc3Cl)CC1)C2 (relative stereo)
154 °C | CN(C)S(=O)(=O)c1cc2c(c(Cl)c1Cl)OC(C(=O)O)C2 (configuration not stated)

melting point | SMILES
270 °C | O=C1Nc2c(ccc3c2CCNC3)C1=O
226 to 230 °C | CCN(CC)CCCNc1ncc2cc(-c3c(Br)cccc3Br)c(N)nc2n1
120 to 123 °C | CS(=O)(=O)OCC1CCN(c2ccc(Br)cc2)C1=O (configuration not stated)
111 to 145 °C | O=C(O)c1cccc(-c2ccnc3cc(Cc4cccc(C(F)(F)F)c4)nn23)c1
165 to 167 °C | CC(C(=O)OC1(C)CCCCC1)c1ccc2nc(N)sc2c1 (configuration not stated)
248 to 250 °C | C[C@@H](Nc1ncnc2[nH]c(-c3ccc(CN4CCN(C)CC4)cc3)cc12)c1ccccc1
91 to 93 °C | Cc1c(C(F)(F)F)cnn(-c2ncc(Cl)cc2F)c1=O
117 to 120 °C | CCOC(=O)c1cnn(-c2cccc(S(=O)(=O)N(C)C)n2)c1Cl
139 to 141 °C | O=C1C2=C(CCCC2)C(=O)N1c1c(F)cc(Cl)c2nc(Cl)sc12
105 to 106 °C | CCOC(=O)CCn1nc(-c2cc(C(C)(C)C)c(O)c(C(C)(C)C)c2)c2cccnc21
226 to 231 °C | COC(=O)Cn1c(C(=O)NC(N)=S)cc2cc(C)cc(C)c21
110 to 114 °C | COC(=O)Cn1c(C(=O)Nc2nc(-c3cc(Br)c(OC)cc3OC)c(CCC3CCCCC3)s2)cc2ccccc21
134 to 136 °C | COC(=O)/C=C/C#Cc1cccc(S(=O)(=O)Nc2ccccc2)c1
174 to 175 °C | C[C@@H]1CN(C(=O)[C@@](C)(O)C(F)(F)F)[C@@H](C)CN1S(=O)(=O)c1ccc(F)cc1
115 °C | N#Cc1cnn(-c2ccc(OC(F)(F)F)cc2Cl)c1N
248 to 250 °C | FC(F)(F)c1cccc(Nc2nc(Cl)nc3nc[nH]c23)c1
182 to 187 °C | CC(C)=NN=C1NCC(=O)N1
93 to 95 °C | CC(=O)NCCOC(=O)C(Oc1cccc(C(F)(F)F)c1)c1ccc(Cl)cc1 (configuration not stated)
174 to 175 °C | CC(C)Cn1cnc2c(N)nc3ccc(CCCN4CCCC4=O)cc3c21
191 to 192 °C | Cc1cc(NS(=O)(=O)c2cccc(S(=O)(=O)Nc3cc(C)c(S(=O)(=O)C[N+](=O)[O-])c(C)c3)c2)cc(C)c1S(=O)(=O)C[N+](=O)[O-]
302 °C | Cc1cc(-c2ccc(C(F)(F)F)cc2)cn2c(-c3nc(-c4cnc(N)nc4)no3)cnc12
115 to 116 °C | Sc1c(Cl)cc(Cl)c(Cl)c1S
201 to 202 °C | CC(=Cc1cccc([N+](=O)[O-])c1)C(=O)O

SMILES | melting point
O=C(OCC(Cl)(Cl)Cl)c1ncn2c1CN=C(c1ccccc1)c1cc(Br)ccc1-2 | 113 to 116 °C
N[C@@H](Cc1ccccc1)C(=O)NCC(=O)Nc1ccc([N+](=O)[O-])cc1C(=O)c1ccccc1 | 144 to 146 °C
COc1cccc(N(C)C(=O)Oc2ccc(C(F)(F)F)cc2)n1 | 85 to 86 °C
